Measured values as given in ChEMBL document CHEMBL1201862, “PubChem BioAssay data set” (2004).
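In this assay, cells in 96-well plates receive the compound at five concentrations for 48 hours. Endpoints are linearly interpolated between the surrounding concentrations. At the GI50, growth is halved.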 Calls of active or inactive are those of the source. No stated cut-off is given here; in the data, active = GI50 up to about 1.1 µM and inactive = higher.

How the values were obtained:
Assay in all cases: NCI-60 cell line screen, 48 h
[1] = tested on: EKVX
[2] = tested on: SK-MEL-2
[3] = tested on: HOP-18
[4] = tested on: Malme-3M
[5] = tested on: RXF 393
[6] = tested on: NCI-H522
[7] = tested on: DLD-1
[8] = tested on: HCC 2998
[9] = tested on: 786-0
[10] = tested on: A498
[11] = tested on: CAKI-1
[12] = tested on: HOP-62
[13] = tested on: RPMI-8226
[14] = tested on: IGROV-1
[15] = tested on: ACHN
[16] = tested on: LOX IMVI
[17] = tested on: K562
[18] = tested on: OVCAR-4
[19] = tested on: UO-31
[20] = tested on: SK-MEL-28
[21] = tested on: SR
[22] = tested on: COLO 205
[23] = tested on: SF-295
[24] = tested on: SK-OV-3
[25] = tested on: LXFL 529
[26] = tested on: XF498
[27] = tested on: KM-20L2
[28] = tested on: SNB-78
[29] = tested on: SF-539
[30] = tested on: HOP-92
[31] = tested on: M19-MEL
[32] = tested on: OVCAR-8
[33] = tested on: HT-29
[34] = tested on: HL-60
[35] = tested on: OVCAR-5
[36] = tested on: TK-10
[37] = tested on: SNB-75
[38] = tested on: NCI-H460
[39] = tested on: SK-MEL-5
[40] = tested on: SNB-19
[41] = tested on: HCT-15
[42] = tested on: HCT-116
[43] = tested on: M14
[44] = tested on: DMS-273
[45] = tested on: NCI-H226
[46] = tested on: NCI-H23
[47] = tested on: UACC-257
[48] = tested on: MOLT-4
[49] = tested on: UACC-62
[50] = tested on: A549
[51] = tested on: DMS-114
[52] = tested on: SF-268
[53] = tested on: KM12
[54] = tested on: U-251
[55] = tested on: SN12C
[56] = tested on: SW-620
[57] = tested on: CCRF-CEM

Q: What does the source list for `CC(=O)c1cccc(NC(=O)C(=O)Nn2c(N)nnc2N)c1`?
A: GI50 [1]: > 100 µM (inactive); GI50 [2]: > 100 µM (inactive); GI50 [3]: > 100 µM (inactive); GI50 [4]: > 100 µM (inactive); GI50 [5]: > 100 µM (inactive); GI50 [6]: > 100 µM (inactive); GI50 [7]: > 100 µM (inactive); GI50 [8]: > 100 µM (inactive); GI50 [9]: > 100 µM (inactive); GI50 [10]: > 100 µM (inactive); GI50 [11]: > 100 µM (inactive); GI50 [12]: > 100 µM (inactive); GI50 [13]: > 100 µM (inactive); GI50 [14]: > 100 µM (inactive); GI50 [15]: > 100 µM (inactive); GI50 [16]: > 100 µM (inactive); GI50 [17]: > 100 µM (inactive); GI50 [18]: > 100 µM (inactive); GI50 [19]: > 100 µM (inactive); GI50 [20]: > 100 µM (inactive); GI50 [21]: > 100 µM (inactive); GI50 [22]: > 100 µM (inactive); GI50 [23]: > 100 µM (inactive); GI50 [24]: > 100 µM (inactive); GI50 [25]: > 100 µM (inactive); GI50 [26]: > 100 µM (inactive); GI50 [27]: > 100 µM (inactive); GI50 [28]: > 100 µM (inactive); GI50 [29]: > 100 µM (inactive); GI50 [30]: > 100 µM (inactive); GI50 [31]: > 100 µM (inactive); GI50 [32]: > 100 µM (inactive); GI50 [33]: > 100 µM (inactive); GI50 [34]: > 100 µM (inactive); GI50 [35]: > 100 µM (inactive); GI50 [36]: > 100 µM (inactive); GI50 [37]: > 100 µM (inactive); GI50 [38]: > 100 µM (inactive); GI50 [39]: > 100 µM (inactive); GI50 [40]: > 100 µM (inactive); GI50 [41]: > 100 µM; GI50 [42]: > 100 µM (inactive); GI50 [43]: > 100 µM (inactive); GI50 [44]: > 100 µM (inactive); GI50 [45]: > 100 µM (inactive); GI50 [46]: > 100 µM (inactive); GI50 [47]: > 100 µM (inactive); GI50 [48]: > 100 µM (inactive); GI50 [49]: > 100 µM (inactive); GI50 [50]: > 100 µM (inactive); GI50 [51]: > 100 µM (inactive); GI50 [52]: > 100 µM (inactive); GI50 [53]: > 100 µM (inactive); GI50 [54]: > 100 µM (inactive); GI50 [55]: > 100 µM (inactive); GI50 [56]: > 100 µM (inactive); GI50 [57]: > 100 µM (inactive)
